Results: paper PMC3551916, “The Effects of Methionine Acquisition and Synthesis on Streptococcus Pneumoniae Growth and Virulence” (PLoS ONE, 2013)

How the values were obtained:
MetQ [1] = target: T1, MetQ (Streptococcus pneumoniae, UniProt A0A0H2ZPC6); assay: tryptophan fluorescence spectroscopy titration; assay type: binding
T1 construct: gene SPD_0151; His6-MetQ (Sp_0149) without the predicted N-terminal signal peptide, ligand free, cloned from strain D39

MetQ [2] = target: T1, MetQ; assay: isothermal titration calorimetry (also tryptophan fluorescence, KD […]); assay type: binding

T1 sequence (A0A0H2ZPC6 entry or part of it): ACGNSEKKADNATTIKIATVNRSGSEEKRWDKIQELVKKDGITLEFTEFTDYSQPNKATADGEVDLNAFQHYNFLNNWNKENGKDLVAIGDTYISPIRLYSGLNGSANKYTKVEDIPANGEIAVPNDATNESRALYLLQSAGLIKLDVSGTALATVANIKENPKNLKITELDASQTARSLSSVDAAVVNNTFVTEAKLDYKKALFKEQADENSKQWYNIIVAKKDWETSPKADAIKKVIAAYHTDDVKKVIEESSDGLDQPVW

| Structure (SMILES) | Kd (MetQ [1]) | Kd (MetQ [2]) |
| --- | --- | --- |
| NC(CCS)C(=O)O (racemic) [DL-homocysteine] | 7 ± 0.26 µM | – |
| CSCCC(C)(N)C(=O)O (racemic) [α-methyl-DL-methionine] | 30.1 ± 0.86 µM | – |
| CSCC[C@@H](N)C(=O)O [D-methionine] | 27.4 ± 0.96 µM | – |
| CSCC[C@H](N)C(=O)O [L-methionine] | – | 0.0266 ± 0.00128 µM |
